In US20240100116A1, “EUCOMMIA ULMOIDES OLIV. LEAF EXTRACT CAPABLE OF PROTECTING HEALTH OF KIDNEY FUNCTION, AND PREPARATION AND DETECTION METHODS THEREOF” (Chenland Nutritionals Inc., priority 2023, published 2024) one finds inhibition data, which are given here for one compound.

This test addresses xanthine oxidase (Homo sapiens, UniProt P47989). As to the kind of experiment: Xanthine oxidase (XOD) inhibition, uric acid production read at OD290 nm. The following applies: read-out: Inhibition rate (%). Type of test: biochemical. On the procedure: Xanthine oxidase catalyzes a xanthine substrate to produce uric acid and superoxide anion, and uric acid has a characteristic absorption peak under 290 nm UV conditions. By measuring the change curve of absorbance value within a certain time, the slope of this curve is the production rate of the uric acid, to measure the change of the activity of xanthine oxidase, so as to judge the uric acid lowering ability of the sample.
92.4 μL of xanthine oxidase mother solution (5 U/770 μL) is drawn in a centrifuge tube, and diluted with 11.9076 mL of PBS to obtain 0.05 U/mL xanthine oxidase working solution which shall be prepared for immediate use.
0.02284 g of xanthine is weighed in a beaker; 1.2 mL of 1 mol/L NaOH solution is added; ultrasonic treatment is conducted for 20 min; and the volume is fixed to 100 mL with the PBS to obtain 1.5 mmol/L xanthine working solution.
Eucommia ulmoides Oliv. leaf extract solutions: 0.50 g of corresponding Eucommia ulmoides Oliv. leaf extract sample in embodiment 5 is weighed; the volume is fixed to 50 mL with the PBS; the solution is thoroughly mixed well to prepare 10.0 mg/mL mother solution; and the mother solution is diluted with the PBS to different multiples to obtain different concentrations of Eucommia ulmoides Oliv. solutions.
2.1 A proper quantity of centrifugal tubes are taken and numbered as OD1, OD2, OD3 and OD4 respectively. Reagents are added to each tube according to the combinations of Table 1.
The concentrations are plotted in horizontal coordinates and the inhibition rates are plotted in vertical coordinates to calculate the concentration IC50 with half inhibition rate.

xanthine oxidase, sequence (P47989 whole entry, species assumed): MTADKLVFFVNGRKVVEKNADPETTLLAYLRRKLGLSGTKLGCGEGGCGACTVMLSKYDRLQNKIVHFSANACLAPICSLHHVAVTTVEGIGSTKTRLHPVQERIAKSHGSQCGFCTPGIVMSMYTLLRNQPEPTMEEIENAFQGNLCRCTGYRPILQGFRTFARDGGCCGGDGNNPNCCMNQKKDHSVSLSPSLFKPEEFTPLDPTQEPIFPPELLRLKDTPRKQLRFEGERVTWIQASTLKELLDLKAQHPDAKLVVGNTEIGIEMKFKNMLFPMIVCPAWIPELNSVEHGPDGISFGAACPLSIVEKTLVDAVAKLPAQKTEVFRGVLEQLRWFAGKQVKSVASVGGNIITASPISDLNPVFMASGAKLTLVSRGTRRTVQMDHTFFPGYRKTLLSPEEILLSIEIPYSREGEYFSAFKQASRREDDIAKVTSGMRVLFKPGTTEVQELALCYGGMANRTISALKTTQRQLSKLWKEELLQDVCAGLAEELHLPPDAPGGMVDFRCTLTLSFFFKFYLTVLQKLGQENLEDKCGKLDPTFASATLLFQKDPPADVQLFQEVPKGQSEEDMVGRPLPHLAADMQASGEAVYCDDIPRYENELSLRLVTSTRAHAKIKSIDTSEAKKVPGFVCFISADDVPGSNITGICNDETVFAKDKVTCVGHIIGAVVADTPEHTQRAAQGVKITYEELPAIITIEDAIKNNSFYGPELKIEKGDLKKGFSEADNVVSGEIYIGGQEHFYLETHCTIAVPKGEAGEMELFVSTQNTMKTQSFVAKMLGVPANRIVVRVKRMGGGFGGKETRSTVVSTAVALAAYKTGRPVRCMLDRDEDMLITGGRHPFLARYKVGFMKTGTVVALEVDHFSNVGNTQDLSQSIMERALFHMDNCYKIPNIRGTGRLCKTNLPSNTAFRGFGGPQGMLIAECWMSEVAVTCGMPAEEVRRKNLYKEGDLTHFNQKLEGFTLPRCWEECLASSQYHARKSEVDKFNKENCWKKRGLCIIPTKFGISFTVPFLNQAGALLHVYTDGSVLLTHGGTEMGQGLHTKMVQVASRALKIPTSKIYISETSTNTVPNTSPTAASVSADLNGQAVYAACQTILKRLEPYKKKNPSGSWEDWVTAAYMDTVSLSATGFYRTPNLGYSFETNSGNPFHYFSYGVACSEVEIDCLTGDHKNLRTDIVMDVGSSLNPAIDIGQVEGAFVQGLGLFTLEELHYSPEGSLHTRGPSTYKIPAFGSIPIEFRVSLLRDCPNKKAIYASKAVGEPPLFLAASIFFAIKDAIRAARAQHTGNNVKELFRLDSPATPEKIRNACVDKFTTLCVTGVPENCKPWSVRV

For `Oc1ncnc2[nH]ncc12` [Allopurinol, allopurinol], the inhibition at 0.05 µg/mL (0.05 μg/ml) was 34.1%. Also, the inhibition at 1 µg/mL (1 μg/ml) was 44.9%. The inhibition at 5 µg/mL (5 μg/ml) is 59.4%. Further, the inhibition at 10 µg/mL (10 μg/ml) is 74%. Moreover, the inhibition at 15 µg/mL (15 μg/ml) came to 81.2%. Further, the inhibition at 20 µg/mL (20 μg/ml) is 87.2%. Besides, the inhibition at 25 µg/mL (25 μg/ml) came out at 93.3%.
